Columns and labels:
α1-adrenergic receptor = test: Test of the bond to the α1-adrenergic receptor (inhibition of [3H]prazosin bond to rat cerebral cortex); format: binding, rat (male Sprague Dawley); settings: [3H]prazosin 0.2 nM, rat cerebral cortex membranes, 30 min, 25° C., pH 7.7
Procedure: The cerebral cortices of male Sprague Dawley rats are homogenized at 4° C. in Tris-HCl 50 mM pH=7.7 and centrifuged at 50,000 g for 30 minutes at 4° C. The pellets are again suspended in the same buffer and centrifuged again at 50,000 g for 30 minutes at 4° C.
The filters are rinsed three times with the same buffer at 0-4° C. and their radioactivity is tested by liquid scintillation spectrometry.
The specific bonds are obtained by subtracting the non-specific bonds (determined in the presence of 10 μM of phentolamine (Sigma Chemical Co. St. Louis Mo.)) from the total bonds. The data relative to the bonds is analyzed by computer assisted iterative non-linear regression analysis, using the Ligand program (Munson, P. J., Rodbard, D. Anal. Biochem. 107:220 (1980)).

prostatic urethrae = test: Urethra Contraction Test (inhibition of phenylephrine contraction of prostatic urethra); design: species or system rabbit (male New Zealand); settings: inhibition of contraction of rabbit prostatic urethra, agonist phenylephrine, compound 30 min before
Procedure: The urethrae are removed from male New Zealand rabibits, and cleaned of the surrounding connective tissues. Bands of prostatic urethrae (3 mm wide, 10-15 mm long) are suspended (1 g tension) in organ baths containing 10 ml of physiological solution (pH 7.4) at 37° C. under an atmosphere of 95% O2 /5% CO2; NaCl (118 mM); KCl (4.7 mM); CaCl2 (2.5 mM); KH2 PO4 (1.2 mM); MgSO4 (1.2 mM); NaHCO3 (25 mM); glucose (11 mM). The contractile responses are measured using force displacement transducers coupled to a Gould 8000S polygraph. A one hour period of equilibration or equalization is provided before the experiment. After equalization, the preparations are sensitized by a submaximal concentration of phenylephrine. Forty five minutes after the sensitization, a concentration-effect curve for the phenylephrine is established. In order to determine the effect of the test compounds, different preparations originating from the same animal are used in parallel. One preparation serves as a control whilst the others receive a concentration of a test compound introduced into the bath 30 minutes before the phenylephrine (Auguet, M. et al. European J. Pharmacol. 217:153 (1995)).
The dissociation constants (Kb) of the test compounds are determined using the following equation: Kb =[B]/(dose ratio--1); in which [B] is the concentration of test compound and (dose ratio) is the EC50 of phenylephrine in the presence of the test compound divided by the EC50 of the control preparation. These resultats are then expressed as the negative logarithm of Kb. The values of the EC50 are calculated from the maximum contractile response to the phenylephrine by computer analysis using a linear regression over the average tension values. The maximum contractile response of each preparation which was subjected to the test compound is determined by comparing the response provoked by the application of the sensitizing concentration of phenylephrine with the response provoked in the control preparation (which has not received the test compounds).

| SMILES | Ki (α1-adrenergic receptor) | -log Kb (prostatic urethrae) |
| --- | --- | --- |
| COC(C(=O)NCCCN1CCN(c2cc(C)ccc2C)CC1)(c1ccccc1)c1ccccc1 [Compound 11, N-[3-{4-(2,5-dimethylphenyl)-1-piperazinyl}-propyl]-α-methoxy-α-phenyl-benzeneacetamide] | 38 nM | 6.9 |
| CCOc1ccccc1N1CCN(CCCNC(=O)C(O)(c2ccccc2)c2ccccc2)CC1 [Compound 8, N-[3-{4-(2-ethoxyphenyl)-1-piperazinyl}-propyl]-α-hydroxy-α-phenyl-benzeneacetamide] | 16 nM | 8.2 |
| COc1ccc(C(O)(C(=O)NCCCN2CCN(c3cc(C)ccc3C)CC2)c2ccc(OC)cc2)cc1 [Compound 25, N-[3-{4-(2,5-dimethylphenyl)-1-piperazinyl}-propyl]-α-hydroxy-4-methoxy-α-(4-methoxyphenyl)-benzeneacetamide] | 29 nM | 7.6 |
| COc1ccccc1N1CCN(CCCNC(=O)C(O)(c2ccccc2)c2ccccc2)CC1 [Compound 14, α-hydroxy-N-[3-{4-(2-methoxyphenyl)-1-piperazinyl}-propyl]-α-phenyl-benzeneacetamide] | 27 nM | 7.8 |
| N#Cc1ccccc1N1CCN(CCCNC(=O)C(O)(c2ccccc2)c2ccccc2)CC1 [Compound 10, N-[3-{4-(2-cyanophenyl)-1-piperazinyl}-propyl]-α-hydroxy-α-phenyl-benzeneacetamide] | 27 nM | 8.2 |
| O=C(NCCCN1CCN(c2ccccc2Cl)CC1)C(O)(c1ccccc1)c1ccccc1 [Compound 9, N-[3-{4-(2-chlorophenyl)-1-piperazinyl}-propyl]-α-hydroxy-α-phenyl-benzeneacetamide] | 28 nM | 8.1 |
| COc1ccccc1N1CCN(CCCNC(=O)C2(O)c3ccccc3-c3ccccc32)CC1 [Compound 16, 9-hydroxy-N-[3-{4-(2-methoxyphenyl)-1-piperazinyl}-propyl]-9H-fluorene-9-carboxamide] | 41 nM | 7.8 |
| Cc1ccc(C)c(N2CCN(CCCNC(=O)C(O)(c3ccccc3)c3ccccc3)CC2)c1 [Compound 7, N-[3-{4-(2. 5-dimethylphenyl)-1-piperazinyl}-propyl]-α-hydroxy-α-phenyl-benzeneacetamide] | 30 nM | 8.1 |
| COc1ccccc1N1CCN(CCCNC(=O)C(c2ccccc2)c2ccccc2)CC1 [Compound 13, N-[3-{4-(2-methoxyphenyl)-1-piperazinyl}-propyl]-α-phenyl-benzeneacetamide] | 30 nM | 8.2 |
| COc1ccccc1N1CCN(CCCNC(=O)C(O)(c2ccccc2Cl)c2ccccc2Cl)CC1 [Compound 17, 2-chloro-α-(2-chlorophenyl)-α-hydroxy-N-[3-{4-(2-methoxyphenyl)-1-piperazinyl}-propyl]-α-phenyl-benzeneacetamide] | 54 nM | 7.7 |
| Cc1ccccc1N1CCN(CCCNC(=O)C(O)(c2ccccc2)c2ccccc2)CC1 [Compound 2, α-hydroxy-N-[3-{4-(2-methylphenyl)-1-piperazinyl}-propyl]-α-phenyl-benzeneacetamide] | 30 nM | 8 |

Continued, in another order:

| Ki (α1-adrenergic receptor) | SMILES | -log Kb (prostatic urethrae) |
| --- | --- | --- |
| 14 nM | Cc1ccc(C)c(N2CCN(CCCNC(=O)C(C(=O)NCc3ccccc3)c3ccccc3)CC2)c1 (racemic) [Compound 47, (±)-N-[3-{4-(2,5-dimethylphenyl)-1-piperazinyl}-propyl]-α-benzylaminocarbonyl-benzeneacetamide] | 7.07 |
| 22 nM | Cc1ccc(C)c(N2CCN(CCCNC(=O)C(C)(O)c3cccc4ccccc34)CC2)c1 (racemic) [Compound 42, (±)-N-[3-{4-(2,5dimethylphenyl)-1-piperazinyl}-propyl]-α-hydroxy-α-methyl-1-naphthaleneacetamide] | 7.68 |
| 27 nM | Cc1ccc(C)c(N2CCN(CCCNC(=O)C(CO)c3ccccc3)CC2)c1 (racemic) [Compound 39, (±)-N-[3-{4-(2,5-dimethylphenyl)-1-piperazinyl}-propyl]-α-hydroxymethyl-benzeneacetamide] | 7.3 |
| 25 nM | Cc1ccc(C)c(N2CCN(CCCNC(=O)C(C)(O)c3ccccc3)CC2)c1 (racemic) [Compound 22, (±)-N-[3-{4-(2,5-dimethylphenyl)-1-piperazinyl}-propyl]-α-hydroxy-α-methyl-benzeneacetamide] | 8.3 |
| 27 nM | Cc1ccc(C)c(N2CCN(CCCNC(=O)C(c3ccccc3)c3ccccc3)CC2)c1 [Compound 20, N-[3-{4-(2,5-dimethylphenyl)-1-piperazinyl}-propyl]-α-phenyl-benzeneacetamide] | 7.5 |
| 30 nM | Cc1ccc(C)c(N2CCN(CCCNC(=O)C(C)c3ccccc3)CC2)c1 (racemic) [Compound 38, (±)-N-[3-{4-(2,5-dimethylphenyl)-1-piperazinyl}-propyl]-α-methyl-benzeneacetamide] | 7.5 |
| 31 nM | CCC(O)(C(=O)NCCCN1CCN(c2cc(C)ccc2C)CC1)c1ccccc1 (racemic) [Compound 27, (±)-N-[3-{4-(2,5-dimethylphenyl)-1-piperazinyl}-propyl]-2-hydroxy-2-phenyl-butyramide] | 7.6 |
| 50 nM | Cc1ccc(C)c(N2CCN(CCCNC(=O)C(C)(C(=O)NCc3ccccc3)c3ccccc3)CC2)c1 (racemic) [Compound 50, (±)-N-[3-{4-(2,5-dimethylphenyl)-1-piperazinyl}-propyl]-α-benzylaminocarbonyl-α-methyl-benzeneacetamide] | 6.92 |
| 29 nM | Cc1ccc(S(=O)(=O)NC(C(=O)NCCCN2CCN(c3cc(C)ccc3C)CC2)c2ccccc2)cc1 (racemic) [Compound 48, (±)-N-[3-{4-(2,5-dimethylphenyl)-1piperazinyl}-propyl]-α-(4-methylphenyl)-sulphonylamino-benzeneacetamide] | 7.02 |
| 48 nM | Cc1ccc(C)c(N2CCN(CCCNC(=O)[C@](C)(O)c3ccccc3)CC2)c1 [Compound 46, R-(-)-N-[3-{4-(2,5-dimethylphenyl)-1-piperazinyl}-propyl]-α-hydroxy-α-methyl-benzeneacetamide] | 7.5 |
| 27 nM | COc1ccccc1N1CCN(CCCNC(=O)C2c3ccccc3Oc3ccccc32)CC1 [Compound 15, N-[3-{4-(2-methoxyphenyl)-1-piperazinyl}-propyl]-9H-xanthene-9-carboxamide] | 7.9 |

Source: patent publication US6300499A, “α1-adrenergic receptor antagonists” (Societe de Conseils de Recherches et d'Applications …, priority 1998, dated 2001)
